Counter-ions that a name gives are not always drawn.
Key:
MIN6 cell = experiment: Insulin secretion promoting activity for cultured β cells (MIN6); assay type: cell-based; details: for secretion promoting action at a low glucose concentration (in words): MIN6 cells, glucose at a low concentration (5 mmol/L)
Protocol: Culture of the MIN6 cells above and insulin secretion test utilizing the MIN6 cells were performed according to the methods described in Diabetologia, vol. 36, pp. 1139–1145, 1993. The effect of a compound on the insulin secretion in the presence of 14.5 mmol/L glucose was determined by measuring insulin amounts in cell culture supernatants collected as follows. MIN6 cells cultured on a 24-well plate were washed twice by using 1 mL of Buffer A (119 mmol/L sodium chloride, 4.74 mmol/L potassium chloride, 2.54 mmol/L calcium chloride, 1.19 mmol/L magnesium sulfate, 1.19 mmol/L potassium dihydrogenphosphate, 10 mmol/L 2-[4-(2-hydroxyethyl)-1-piperazinyl]ethanesulfonic acid, 0.1% bovine serum albumin, pH 7.3) containing 2 mmol/L glucose, and then were incubated in 1 mL of Buffer A containing 2 mmol/L glucose at 37° C. for 45 minutes. After the incubation, the culture supernatant was changed to Buffer A (0.9 mL) containing a test compound at various concentrations and 2 mmol/L glucose, and the cells were further incubated at 37° C. for 15 minutes. The MIN6 cells were stimulated with glucose by the addition of Buffer A (0.1 mL) containing 127 mmol/L glucose to the culture (final glucose concentration: 14.5 mmol/L). After the stimulation, the cells were further incubated at 37° C. for 45 minutes, and then the culture supernatant was collected.
Separately, the effect of a compound on the insulin secretion in the presence of 5 mmol/L glucose was determined by measuring insulin amounts in cell culture supernatants collected as follows. MIN6 cells cultured on a 24-well plate were washed twice by using 1 mL of Buffer A containing 5 mmol/L glucose, and then the culture supernatant was changed to Buffer A (0.9 mL) containing a test compound at various concentrations and 5 mmol/L glucose. Then, the cells were incubated at 37° C. for 45 minutes (final glucose concentration: 5 mmol/L), and the culture supernatant was collected.
After the culture supernatant was diluted with a phosphate buffer containing 1% bovine serum albumin, 0.1% Tween 20, 0.12% disodium ethylenediaminetetraacetate (EDTA) and 0.1% sodium azide, antibody-reactive insulin secreted in the culture supernatant was quantified by enzyme immunoassay or radio immunoassay. The insulin level was indicated as the amount of human insulin (ng/mL). The results are indicated as averages (avg) for 3 to 4 samples with standard erroe values (se).

[1] = in the presence of 5 mmol/L of glucose, drug concentration 10 (mmol/L [sic]), None = 51.2
[2] = in the presence of 14.5 mmol/L of glucose, drug concentration 1.0 μmol/L, None = 148.4

SMILES	Insulin secretion amount (ng/ml) avg (MIN6 cell; [1]) [ng/mL]	Insulin secretion amount (ng/ml) avg (MIN6 cell; [2]) [ng/mL]	melting point	further results
CCCN1C(=O)N2C[C@@H](Cc3ccccc3)N=C2c2[nH]c(C3(O)CCCC3)nc21 [Compound 40, (R)-8-Benzyl-7,8-dihydro-2-(1-hydroxycyclopentyl)-4-(n-propyl)-1H-imidazo[2,1-i]purin-5(4H)-one]	56.7	191.2	–	–
CCCN1C(=O)N2C[C@@H](Cc3ccncc3)N=C2c2[nH]c(C3CCC3)nc21 [Compound 10, (R)-2-Cyclobutyl-7,8-dihydro-8-(4-picolyl)-4-(n-propyl)-1H-imidazo[2,1-i]purin-5(4H)-one D-tartrate]	74.9	196.8	–	–
CCCN1C(=O)N2C[C@@H](Cc3ccccc3)N=C2c2[nH]c(C3CCN(C(=O)OC(C)(C)C)CC3)nc21.Cl	–	–	204 to 205 °C	–
CCCN1C(=O)N2CC(Cn3cccc3)N=C2c2[nH]c(C3CCCC3)nc21 (centres unmarked) [Compound 24, 2-Cyclopentyl-7,8-dihydro-4-(n-propyl)-8-(1-pyrrolylmethyl)-1H-imidazo[2,1-i]purin-5(4H)-one]	71.8	200.0	–	–
CCCN1C(=O)N2CC(Cn3cccn3)N=C2c2[nH]c(C3CCCC3)nc21 (centres unmarked) [Compound 21, 2-Cyclopentyl-7,8-dihydro-4-(n-propyl)-8-(1-pyrazolylmethyl)-1H-imidazo[2,1-i]purin-5(4H)-one]	74.8	182.1	–	–
CC(C)[C@H]1CC[C@H](C(=O)N[C@H](Cc2ccccc2)C(=O)O)CC1 [AY4166, reference compound]	170.8	–	–	secretion promoting action at a low glucose concentration (in words) (MIN6 cell): marked secretion promoting action; Insulin secretion amount (ng/ml) avg (MIN6 cell; in the presence of 14.5 mmol/L of glucose, drug concentration 10 μmol/L, None = 148.4): 195.1 ng/mL
COc1ccc(Cl)cc1C(=O)NCCc1ccc(S(=O)(=O)NC(=O)NC2CCCCC2)cc1 [Glibenclamide, reference compound]	–	–	–	secretion promoting action at a low glucose concentration (in words) (MIN6 cell): marked secretion promoting action; Insulin secretion amount (ng/ml) avg (MIN6 cell; in the presence of 5 mmol/L of glucose, drug concentration 0.1 (mmol/L [sic]), None = 51.2): 156.8 ng/mL; Insulin secretion amount (ng/ml) avg (MIN6 cell; in the presence of 14.5 mmol/L of glucose, drug concentration 0.1 μmol/L, None = 148.4): 177.8 ng/mL
CCCN1C(=O)N2C[C@@H](Cc3ccccc3)N=C2c2c1nc(SC)n2COC [Compound 36, (R)-8-Benzyl-7,8-dihydro-1-methoxymethyl-2-methylthio-4-(n-propyl)-1H-imidazo[2,1-i]purin-5(4H)-one]	–	–	110 to 112 °C	–
CCCN1C(=O)N2C[C@@H](Cc3ccncc3)N=C2c2[nH]c(C3CCCCC3)nc21 [Compound 9, (R)-2-Cyclohexyl-7,8-dihydro-8-(4-picolyl)-4-(n-propyl)-1H-imidazo[2,1-i]purin-5(4H)-one]	74.0	197.6	–	–
CCCN1C(=O)N2C[C@@H](Cc3ccccc3)N=C2c2[nH]c(COCC)nc21.CCCN1C(=O)N2C[C@@H](Cc3ccccc3)N=C2c2[nH]c(COCC)nc21.O=C(O)/C=C/C(=O)O [Compound 45, (R)-8-Benzyl-2-ethoxymethyl-7,8-dihydro-4-(n-propyl)-1H-imidazo[2,1-i]purin-5(4H)-one 0.5 fumarate]	69.9	178.8	–	–
CCCN1C(=O)N2C[C@@H](Cc3ccccc3)N=C2c2c1nc(C=O)n2Cc1ccccc1 [Compound 41, (R)-1,8-Dibenzyl-2-formyl-7,8-dihydro-4-(n-propyl)-1H-imidazo[2,1-i]purin-5(4H)-one]	–	–	184 to 185 °C	–
CCCN1C(=O)N2C[C@@H](Cc3ccccc3)N=C2c2c1nc(Br)n2Cc1ccccc1 [Compound 35, (R)-1,8-Dibenzyl-2-bromo-7,8-dihydro-4-(n-propyl)-1H-imidazo[2,1-i]purin-5(4H)-one]	–	–	200 to 206 °C	–
CCCN1C(=O)N2C[C@@H](Cc3ccccc3)N=C2c2[nH]c(C3(O)CCCC3)nc21 (as salt: salt) [Compound 40, (R)-8-Benzyl-7,8-dihydro-2-(1-hydroxycyclopentyl)-4-(n-propyl)-1H-imidazo[2,1-i]purin-5(4H)-one]	–	–	187 to 188 °C	–
CCCN1C(=O)N2C[C@@H](Cc3ccccc3)N=C2c2[nH]c(C3CCCO3)nc21 (stereo partly drawn) [Compound 51, (R)-8-Benzyl-7,8-dihydro-4-(n-propyl)-2-(tetrahydrofuran-2-yl)-1H-imidazo[2,1-i]purin-5(4H)-one D-tartrate]	79.2	180.8	–	–
CSCCCOC1=Nc2nc(C3CCCC3)[nH]c2C2=N[C@H](Cc3ccccc3)CN12 [Compound 71, (R)-8-Benzyl-2-cyclopentyl-7,8-dihydro-5-(3-methylthiopropyloxy)-1H-imidazo[2,1-i]purine]	107.7	211.0	–	–
CCCN1C(=O)N2C[C@@H](Cc3ccccc3)N=C2c2[nH]c(CSCC)nc21.CCCN1C(=O)N2C[C@@H](Cc3ccccc3)N=C2c2[nH]c(CSCC)nc21.O=C(O)/C=C/C(=O)O [Compound 64, (R)-8-Benzyl-2-ethylthiomethyl-7,8-dihydro-4-(n-propyl)-1H-imidazo[2,1-i]purin-5(4H)-one 0.5 fumarate]	61.2	204.9	–	–
Cl.O=C(O)CN1C(=O)N2C[C@@H](Cc3ccccc3)N=C2c2[nH]c(C3CCCC3)nc21	–	–	280 °C (dec.)	–
CCCN1C(=O)N2C[C@@H](Cc3ccccc3)N=C2c2c1nc(CCl)n2Cc1ccccc1 [Compound 42, (R)-1,8-Dibenzyl-2-chloromethyl-7,8-dihydro-4-(n-propyl)-1H-imidazo[2,1-i]purin-5(4H)-one]	–	–	112 to 113 °C	–
CCCN1C(=O)N2C[C@@H](Cc3ccccc3)N=C2c2[nH]c(CCC(=O)O)nc21	–	–	274 to 276 °C	–
O=C1N2CC(Cc3ccncc3)N=C2c2[nH]c(C3CCCC3)nc2N1CC1CC1 (centres unmarked) [Compound 14, 2-Cyclopentyl-4-cyclopropylmethyl-7,8-dihydro-8-(4-picolyl)-1H-imidazo[2,1-i]purin-5(4H)-one dihydrochloride]	66.4	177.9	–	–
Cl.O=C1N2C[C@@H](Cc3ccc(F)cc3)N=C2c2[nH]c(C3CCCC3)nc2N1CCO	–	–	165 to 167 °C	–
CC(C)(O)CN1C(=O)N2C[C@@H](Cc3ccccc3)N=C2c2[nH]c(C3CCCC3)nc21 [Compound 81, (R)-8-Benzyl-2-cyclopentyl-7,8-dihydro-4-(2-hydroxy-2-methylpropyl)-1H-imidazo[2,1-i]purin-5(4H)-one hydrochloride]	83.1	195.4	–	–
CC(C)(O)CCN1C(=O)N2C[C@@H](Cc3ccccc3)N=C2c2[nH]c(C3CCCC3)nc21 [Compound 85, (R)-8-Benzyl-2-cyclopentyl-7,8-dihydro-4-(3-hydroxy-3-methylbutyl)-1H-imidazo[2,1-i]purin-5(4H)-one hydrochloride]	53.6	197.1	–	–
CCCN1C(=O)N2C[C@@H](Cc3ccccc3)N=C2c2[nH]c(COCc3ccccc3)nc21.CCCN1C(=O)N2C[C@@H](Cc3ccccc3)N=C2c2[nH]c(COCc3ccccc3)nc21.O=C(O)/C=C/C(=O)O [Compound 56, (R)-8-Benzyl-2-benzyloxymethyl-7,8-dihydro-4-(n-propyl)-1H-imidazo[2,1-i]purin-5(4H)-one 0.5 fumarate]	56.2	189.0	–	–
